Patent US20220117867A1, “ANTIMICROBIAL ACTIVITY OF FATTY ACID ESTERS AND COMBINATIONS THEREOF” (SYMRISE AG, priority 2019, published 2022)
Values after ≈ are worked out from the molar mass of the structure shown. Like-named read-outs stand apart in the source and are kept apart here. Blank lines part the entries; values can stand above or below the compound they belong to.

Tests used:
Assay type in all cases: cell-based
Escherichia coli [1] = test: Minimum Inhibitory Concentration (MIC) Method A
Experimental: (§1) A) Minimum Inhibitory Concentration (MIC) Method A
(§2) The MIC test is a test on growth inhibition. Estimation of Minimum Inhibitory Concentration (MIC) is executed in 96 well plates. Through the comparison of bacterial growth curves with positive and negative controls via optical density (OD), different concentrations of given test substances are evaluated.
(§3) Bacteria are cultivated under adjusted conditions based on information of the German Collection of Microorganisms and Cell Cultures (DSMZ) and stored in 50% Glycerol prior to use. Afterwards, the following method was applied:
(§4) Adding growth medium (according to microorganism) to each well of the microplate.
(§5) Adding the test-substances in different concentrations, positive controls (water controls only with medium) and negative controls (benchmarks according to organism).
(§6) Adding the microorganism in a concentration of 10^6 CFU/ml (CFU=colony forming units). Incubation of the microplates at appropriate conditions.
(§7) Aerobic microorganism: optical density is continuously measured (microplate reader) during incubation.
(§8) According to resulting growth curves, substance concentrations are labelled either as inhibiting or normal growth and MIC is defined as the lowest concentration where a clear inhibition is visible. Experiments at concentration limits (highest concentration labelled as growth and lowest concentration labelled as inhibiting) are performed at least twice.

Aspergillus brasiliensis [2] = test: Minimum Inhibitory Concentration (MIC) Method A
Experimental: as §1, §2, §3, §4, §5, §6, §7, §8

Staphylococcus aureus [3] = test: Minimum Inhibitory Concentration (MIC) Method A
Experimental: as §1, §2, §3, §4, §5, §6, §7, §8

[4] = tested on: Staphylococcus epidermidis; test: Minimum Inhibitory Concentration (MIC) Method A
Experimental: as §1, §2, §3, §4, §5, §6, §7, §8

Corynebacterium xerosis [5] = test: Minimum Inhibitory Concentration (MIC) Method B, DIN 58940; Synergy Index according to Kull; details: Method B (Examples 3, 5, 6), C. xerosis, single substance
Experimental: (§9) B) Minimum Inhibitory Concentration (MIC) Method B
(§10) 5 ml of the appropriate dilution of the test product is mixed with 0.1 ml of test suspension and mixed well. After the required action times, the mixture was mixed again. Each 0.1 ml were removed and placed in 5 ml of CSL-bouillon without neutralizing agents.
(§11) In order to calculate the synergy index with MIC values, the Kull equation (I) was used as follows:
(§12) SI=(MICmixture×PA)/MICA+(MICmixture×PB)/MICB (I)

Escherichia coli [6] = test: as above; details: Method B (Example 5), E. coli, single substance
Experimental: as §9
(§13) Test conditions: Evaluation of bactericidal and fungicidal activity in qualitative suspension test (VAH-standard methods, 04-2015). 5 ml of the appropriate dilution of the test product is mixed with 0.1 ml of test suspension and mixed well. After the required action times, the mixture was mixed again. Each 0.1 ml were removed and placed in 5 ml of CSL-bouillon without neutralizing agents.
as §11, §12
(§14) The synergistic activity of 3-hydroxypropyl caprylate and glyceryl caprylate on several bacterial and fungal reference strains for application in either Deodorant application or as preservative was determined by measuring minimum inhibitory concentrations (MIC values) according to DIN 58940 and method B (method section above).

Aspergillus brasiliensis [7] = test: as above; details: Method B (Example 5), A. brasiliensis, single substance
Experimental: as §9, §13, §11, §12, §14

Staphylococcus hominis [8] = test: as above; details: Method B (Example 5), S. hominis, single substance
Experimental: as §9, §13, §11, §12, §14

Epidermophyton floccosum = test: as above; details: single substance
Experimental: as §9, §10, §11, §12
SI is the Synergy Index according to Kull
MICA is the MIC value for Substance A
MICB is the MIC value for Substance B
MICmixture is the MIC value for the mixture of substances A and B
PA is the proportion of the substance A in the mixture
PB is the proportion of the substance B in the mixture

Peptoniphilus lacrimalis = test: Minimum Inhibitory Concentration (MIC) Method B
Experimental: as §13, with “B) Minimum Inhibitory Concentration (MIC) Method B Test” for “Test”

Streptococcus mutans = test: Minimum Inhibitory Concentration (MIC) Method B
Experimental: as §13, with “B) Minimum Inhibitory Concentration (MIC) Method B Test” for “Test”

Streptococcus agalactiae = test: Minimum Inhibitory Concentration (MIC) Method B
Experimental: as §13, with “B) Minimum Inhibitory Concentration (MIC) Method B Test” for “Test”

[9] = tested on: Fannyhessea vaginae (Atopobium vaginae); test: Minimum Inhibitory Concentration (MIC) Method B
Experimental: as §13, with “B) Minimum Inhibitory Concentration (MIC) Method B Test” for “Test”

Gardnerella vaginalis = test: Minimum Inhibitory Concentration (MIC) Method B
Experimental: as §13, with “B) Minimum Inhibitory Concentration (MIC) Method B Test” for “Test”

Trichophyton rubrum = test: Minimum Inhibitory Concentration (MIC) Method B
Experimental: as §13, with “B) Minimum Inhibitory Concentration (MIC) Method B Test” for “Test”

Pseudomonas aeruginosa = test: Preservative Efficacy Test (method C); details: P. aeruginosa; for Colony counts: 1% test substance in o/w emulsion; for Relative colony counts: relative to inoculum = 1.0000
Experimental: (§15) C) Preservative Efficacy Test
(§16) Test conditions: Sample (1% test substance in adequate formulation (o/w emulsion)) was inoculated with 0.1 ml of the microbial suspensions, homogenized, and incubated at 20° C.-25° C. Colony count was determined after 2, 7, 14, and 28 days of incubation through plating on adequate solid medium.
(§17) 3-hydroxypropyl caprylate was tested in a potential formulation against the microorganisms Escherichia coli, Pseudomonas aeruginosa, Staphylococcus aureus, and Candida albicans using method C. Resulting colony counts are depicted in Table 4.

Escherichia coli [10] = test: Preservative Efficacy Test (method C); details: E. coli; for Colony counts: 1% test substance in o/w emulsion; for Relative colony counts: relative to inoculum = 1.0000
Experimental: as §15, §16, §17

Candida albicans [11] = test: Preservative Efficacy Test (method C)
Experimental: as §15, §16, §17

Staphylococcus aureus [12] = test: Preservative Efficacy Test (method C); details: S. aureus; for Colony counts: 1% test substance in o/w emulsion; for Relative colony counts: relative to inoculum = 1.0000
Experimental: as §15, §16, §17

human sebaceous glands = test: Sebum secretion in cultured micro-dissected human sebaceous glands; details: human sebaceous glands of Donor 1 and Donor 2; six days culture; different concentrations; vs untreated control
Experimental: Additional tests were performed with human sebaceous glands in order to verify the modulatory activity of a compound on sebum secretion. For this sebaceous glands had been micro-dissected and cultured with medium. The medium without any supplement served as untreated control. Medium with 5 μM Capsaicin served as positive control. Additionally, culture medium was supplemented with different concentrations of 3-hydroxypropyl caprylate. After six days the sebaceous glands were collected and lipids and proteins quantified. The total lipid amount being representative of sebum production was obtained by normalizing the quantified lipids upon the quantified proteins (i.e. mg of lipids/mg of proteins).

Corynebacterium xerosis [13] = test: Minimum Inhibitory Concentration (MIC) Method A; details: read-out: MIC
Experimental: (§18) A) Minimum Inhibitory Concentration (MIC) Method A The MIC test is a test on growth inhibition. Estimation of Minimum Inhibitory Concentration (MIC) is executed in 96 well plates. Through the comparison of bacterial growth curves with positive and negative controls via optical density (OD), different concentrations of given test substances are evaluated. Bacteria are cultivated under adjusted conditions based on information of the German Collection of Microorganisms and Cell Cultures (DSMZ) and stored in 50% Glycerol prior to use. Afterwards, the following method was applied: Adding growth medium (according to microorganism) to each well of the microplate. Adding the test-substances in different concentrations, positive controls (water controls only with medium) and negative controls (benchmarks according to organism). Adding the microorganism in a concentration of 10^6 CFU/ml (CFU=colony forming units). Incubation of the microplates at appropriate conditions. Aerobic microorganism: optical density is continuously measured (microplate reader) during incubation. Anaerobic microorganism: incubation in an anaerobic chamber, measurement of the optical density at the end of the incubation, comparison of the results with positive and negative controls. According to resulting growth curves, substance concentrations are labelled either as inhibiting or normal growth and MIC is defined as the lowest concentration where a clear inhibition is visible. Experiments at concentration limits (highest concentration labelled as growth and lowest concentration labelled as inhibiting) are performed at least twice.

Fusobacterium nucleatum = test: Minimum Inhibitory Concentration (MIC) Method A
Experimental: as §18

Porphyromonas gingivalis = test: Minimum Inhibitory Concentration (MIC) Method A
Experimental: as §18

Candida albicans [14] = test: Minimum Inhibitory Concentration (MIC) Method A
Experimental: as §18

Prevotella intermedia = test: Minimum Inhibitory Concentration (MIC) Method A
Experimental: as §18

Staphylococcus hominis [15] = test: Minimum Inhibitory Concentration (MIC) Method A
Experimental: as §18

Structure (SMILES): CC(C)(O)CCc1ccccc1 [Dimethyl Phenylbutanol, reference compound]
MIC (Escherichia coli [1]): 2500 ppm | MIC (Aspergillus brasiliensis [2]): 2500 ppm | MIC (Staphylococcus aureus [3]): 1000 ppm | MIC [4]: 1000 ppm

Structure (SMILES): CCCCCCC(O)CO (stereo not shown) [Caprylyl Glycol, 1,2-Octanediol]
MIC (Corynebacterium xerosis [5]): 2500 µg/mL | MIC (Epidermophyton floccosum): 5000 µg/mL

Structure (SMILES): CCCCCCCC(=O)OCCCO [3-hydroxypropyl caprylate]
MIC (Peptoniphilus lacrimalis): 1000 µg/mL (≈ 4940 µM) | MIC (Streptococcus mutans): 5000 µg/mL (≈ 24700 µM) | MIC (Streptococcus agalactiae): 10000 µg/mL (≈ 49400 µM) | MIC [9]: 500 µg/mL (≈ 2470 µM) | MIC (Gardnerella vaginalis): 500 µg/mL (≈ 2470 µM) | MIC (Trichophyton rubrum): 500 µg/mL (≈ 2470 µM) | MIC (Escherichia coli [1]; read-out: MIC): 1000 µg/mL (≈ 4940 µM) | MIC (Aspergillus brasiliensis [2]; read-out: MIC): 1000 µg/mL (≈ 4940 µM) | MIC (Staphylococcus aureus [3]; read-out: MIC): 500 µg/mL (≈ 2470 µM) | MIC ([4]; read-out: MIC): 500 µg/mL (≈ 2470 µM) | MIC (Escherichia coli [6]): 1000 µg/mL | MIC (Aspergillus brasiliensis [7]): 1000 µg/mL | MIC (Staphylococcus hominis [8]): 1000 µg/mL | Colony counts (Pseudomonas aeruginosa; Day 2, inoculum 4400000): >10 cfu/g formulation | Relative colony counts (Pseudomonas aeruginosa; Day 2): 0.0000 | Colony counts (Pseudomonas aeruginosa; Day 7): >10 cfu/g formulation | Relative colony counts (Pseudomonas aeruginosa; Day 7): 0.0000 | Colony counts (Pseudomonas aeruginosa; Day 14): >10 cfu/g formulation | Relative colony counts (Pseudomonas aeruginosa; Day 14): 0.0000 | Colony counts (Pseudomonas aeruginosa; Day 28): >10 cfu/g formulation | Relative colony counts (Pseudomonas aeruginosa; Day 28): 0.0000 | Colony counts (Escherichia coli [10]; Day 2, inoculum 4500000): 15 cfu/g formulation | Relative colony counts (Escherichia coli [10]; Day 2): 0.0000 | Colony counts (Escherichia coli [10]; Day 7): >10 cfu/g formulation | Relative colony counts (Escherichia coli [10]; Day 7): 0.0000 | Colony counts (Escherichia coli [10]; Day 14): >10 cfu/g formulation | Relative colony counts (Escherichia coli [10]; Day 14): 0.0000 | Colony counts (Escherichia coli [10]; Day 28): >10 cfu/g formulation | Relative colony counts (Escherichia coli [10]; Day 28): 0.0000 | Colony counts (Candida albicans [11]; Day 2, 1% test substance in o/w emulsion, inoculum 4200000): 330000 cfu/g formulation | Relative colony counts (Candida albicans [11]; Day 2, relative to inoculum = 1.0000): 0.0786 | Colony counts (Candida albicans [11]; Day 7, 1% test substance in o/w emulsion): >10 cfu/g formulation | Relative colony counts (Candida albicans [11]; Day 7, relative to inoculum = 1.0000): 0.0000 | Colony counts (Candida albicans [11]; Day 14, 1% test substance in o/w emulsion): >10 cfu/g formulation | Relative colony counts (Candida albicans [11]; Day 14, relative to inoculum = 1.0000): 0.0000 | Colony counts (Candida albicans [11]; Day 28, 1% test substance in o/w emulsion): >10 cfu/g formulation | Relative colony counts (Candida albicans [11]; Day 28, relative to inoculum = 1.0000): 0.0000 | Colony counts (Staphylococcus aureus [12]; Day 2, inoculum 3500000): 250000 cfu/g formulation | Relative colony counts (Staphylococcus aureus [12]; Day 2): 0.0714 fraction of inoculum | Colony counts (Staphylococcus aureus [12]; Day 7): >10 cfu/g formulation | Relative colony counts (Staphylococcus aureus [12]; Day 7): 0.0000 fraction of inoculum | Colony counts (Staphylococcus aureus [12]; Day 14): >10 cfu/g formulation | Relative colony counts (Staphylococcus aureus [12]; Day 14): 0.0000 fraction of inoculum | Colony counts (Staphylococcus aureus [12]; Day 28): >10 cfu/g formulation | Relative colony counts (Staphylococcus aureus [12]; Day 28): 0.0000 fraction of inoculum | relative change in total lipids (mg of lipids/mg of proteins), representative of sebum production (human sebaceous glands): concentration dependent reduction of total lipids | MIC (Corynebacterium xerosis [13]): 500 µg/mL (≈ 2470 µM) | MIC (Fusobacterium nucleatum): 250 µg/mL (≈ 1240 µM) | MIC (Porphyromonas gingivalis): 250 µg/mL (≈ 1240 µM) | MIC (Candida albicans [14]): 500 µg/mL (≈ 2470 µM) | MIC (Prevotella intermedia): 125 µg/mL (≈ 618 µM) | MIC (Staphylococcus hominis [15]): 1000 µg/mL (≈ 4940 µM) | MIC (Epidermophyton floccosum): 500 µg/mL

Results, then the compound that gave them:

MIC (Corynebacterium xerosis [5]): 1000 µg/mL | MIC (Escherichia coli [6]): 2500 µg/mL | MIC (Aspergillus brasiliensis [7]): 2500 µg/mL | MIC (Staphylococcus hominis [8]): 1000 µg/mL
Structure (SMILES): CCCCCCCC(=O)OCC(O)CO (stereo not shown) [glyceryl caprylate, reference compound]

MIC (Epidermophyton floccosum): 15000 µg/mL
Structure (SMILES): CCCC(O)CO (stereo not shown) [Pentylene Glycol, 1,2-Pentanediol]
